Reference: the supplement of paper PMC10307832

Columns and labels:
Assay in all cases: relative viability (nuclei count vs DMSO), 5 days (fraction); higher = more cells survive
[1] = compound: C1CC2=C(C1)C=C(C=C2)OC3=NC(=C4C(=N3)N(C=N4)CC5=CC=C(C=C5)C6=CC=CC=C6)N[C@@H](CC7=CC=CC=C7)CO [QS11] + CC(=O)c1c(C)c2cnc(Nc3ccc(N4CCNCC4)cn3)nc2n(C2CCCC2)c1=O [Palbociclib] (partner 0.5 µM)
In short: (§1)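 Values are medians from duplicate plates. Each reflects relative viability, defined as the nuclei count of treated wells over that of vehicle wells. Lung cancer cell lines in 1536-well plates were pin-tool dosed one day after seeding with one drug alone or with a fixed anchor-drug dose plus five library-drug doses (not always all listed) in √10 steps, then fixed, stained and imaged at 4× after 5 days.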

[2] = compound: CC1=C(C=C(C=C1)NC(=O)C2=CC(=CC=C2)C(C)(C)C#N)NC3=CC4=C(C=C3)N=CN(C4=O)C [AZ628] + CC1(C)CCC(c2ccc(Cl)cc2)=C(CN2CCN(c3ccc(C(=O)NS(=O)(=O)c4ccc(N[C@H](CCN5CCOCC5)CSc5ccccc5)c(S(=O)(=O)C(F)(F)F)c4)cc3)CC2)C1 [Navitoclax] (partner 0.5 µM)
In short: as §1

[3] = compound: CC1=C(C=C(C=C1)NC(=O)C2=CC(=CC=C2)C(C)(C)C#N)NC3=CC4=C(C=C3)N=CN(C4=O)C [AZ628] + O=C(c1cc(Cc2n[nH]c(=O)c3ccccc23)ccc1F)N1CCN(C(=O)C2CC2)CC1 [Olaparib] (partner 8 µM)
In short: as §1

[4] = compound: C[As](C)SC[C@H](NC(=O)CC[C@H](N)C(=O)O)C(=O)NCC(=O)O [Darinaparsin] + O=C(CCCCCCC(=O)Nc1ccccc1)NO [Vorinostat] (partner 1 µM)
In short: as §1

Q: For LCLC-97TM1, which relative viability ([1]; first compound 0.253 µM) is on record?
A: 0.204

Q: And the relative viability ([1]; first compound 2.53 µM)?
A: 0.213

Q: And the relative viability ([1]; first compound 8 µM)?
A: 0.277

Q: What about the relative viability ([2]; first compound 0.08 µM) of the same cell line?
A: 0.86

Q: What about the relative viability ([2]; first compound 0.253 µM) of the same cell line?
A: 0.436

Q: What about the relative viability ([2]; first compound 0.8 µM) of the same cell line?
A: 0.48

Q: What about the relative viability ([2]; first compound 2.53 µM) of the same cell line?
A: 0.437

Q: What about the relative viability ([2]; first compound 8 µM) of the same cell line?
A: 0.255

Q: What about the relative viability ([3]; first compound 0.08 µM) of the same cell line?
A: 0.517

Q: What about the relative viability ([3]; first compound 0.253 µM) of the same cell line?
A: 0.371

Q: What about the relative viability ([3]; first compound 0.8 µM) of the same cell line?
A: 0.356

Q: And the relative viability ([3]; first compound 2.53 µM)?
A: 0.289

Q: And the relative viability ([3]; first compound 8 µM)?
A: 0.202

Q: And the relative viability ([4]; first compound 0.08 µM)?
A: 0.882

Q: What about the relative viability ([4]; first compound 0.8 µM) of the same cell line?
A: 0.862

Q: What about the relative viability ([4]; first compound 2.53 µM) of the same cell line?
A: 0.744

Q: What about the relative viability ([4]; first compound 8 µM) of the same cell line?
A: 0.895
